Results reported in patent US8633154B2, “Cyclodepsipeptides with antineoplastic activity and methods of using to inhibit cancer and microbial growth” (Arizona Board of Regents, a body corporate of the State of …, priority 2007, dated 2014).
Converted amounts (≈) assume the structure as drawn.

How the values were obtained:
Assay type in all cases: cell-based
[1] = tested on: SF268; test: Human cancer cell line growth inhibition, SF268
[2] = tested on: Micrococcus luteus Presque Isle 456; test: Broth microdilution susceptibility assay, Micrococcus luteus
From the text: (§1) Cyclodepsipeptides 1 and 2 were screened against the bacteria Stenotrophomonas maltophilia ATCC 13637, Micrococcus luteus Presque Isle 456, Staphylococcus aureus ATCC 29213, Escherichia coli ATCC 25922, Enterobacter cloacae ATCC 13047, Enterococcus faecalis ATCC 29212, Streptococcus pneumoniae ATCC 6303, Neisseria gonorrhoeae ATCC 49226, and the fungi Candida albicans ATCC 90028 and Cryptococcus neoformans ATCC 90112, according to established broth microdilution susceptibility assays.^15,16 Owing to a paucity of material, compound 2 was tested against S. maltophilia, M. luteus, S. aureus, E. coli and C. albicans only. Compounds were reconstituted in a small volume of sterile DMSO and diluted in the appropriate media immediately prior to susceptibility experiments. The minimum inhibitory concentration was defined as the lowest concentration of compound that inhibited all visible growth of the test organism (optically clear). Assays were repeated on separate days.

[3] = tested on: MCF-7; test: Human cancer cell line growth inhibition, MCF-7
[4] = tested on: NCI-H460; test: Human cancer cell line growth inhibition, NCI-H460
[5] = tested on: KM20L2; test: Human cancer cell line growth inhibition, KM20L2
[6] = tested on: BXPC-3; test: Human cancer cell line growth inhibition, BXPC-3
[7] = tested on: DU-145; test: Human cancer cell line growth inhibition, DU-145
[8] = tested on: Enterococcus faecalis ATCC 29212; test: Broth microdilution susceptibility assay, Enterococcus faecalis; conditions: ATCC29212, read-out: minimum inhibitory concentration [MIC]
From the text: as §1

[9] = tested on: Cryptococcus neoformans ATCC 90112; test: Broth microdilution susceptibility assay, Cryptococcus neoformans
From the text: as §1

Row | SMILES | Inhibition of Human Cancer Cell Lines (GI50) SF268 [1] [ng/mL] | minimum inhibitory concentration [MIC] [2] [µg/mL] | Inhibition of Human Cancer Cell Lines (GI50) MCF-7 [3] [ng/mL] | Inhibition of Human Cancer Cell Lines (GI50) NCI-H460 [4] [ng/mL] | Inhibition of Human Cancer Cell Lines (GI50) KM20L2 [5] [ng/mL] | Inhibition of Human Cancer Cell Lines (GI50) BXPC-3 [6] [µg/mL] | Inhibition of Human Cancer Cell Lines (GI50) DU-145 [7] [ng/mL] | MIC [8] [µg/mL] | GI50 ([1]; Homo sapiens, SF-268, read-out: Inhibition of Human Cancer Cell Lines (GI50) SF268) [ng/mL] | GI50 ([3]; Homo sapiens, MCF7, read-out: Inhibition of Human Cancer Cell Lines (GI50) MCF-7) [ng/mL] | GI50 ([4]; Homo sapiens, read-out: Inhibition of Human Cancer Cell Lines (GI50) NCI-H460) [ng/mL] | GI50 ([5]; Homo sapiens, KM-20L2, read-out: Inhibition of Human Cancer Cell Lines (GI50) KM20L2) [ng/mL] | MIC ([9]; ATCC90112, read-out: minimum inhibitory concentration [MIC]) [µg/mL] | GI50 ([6]; Homo sapiens, read-out: Inhibition of Human Cancer Cell Lines (GI50) BXPC-3) [ng/mL] | GI50 ([7]; Homo sapiens, read-out: Inhibition of Human Cancer Cell Lines (GI50) DU-145) [ng/mL] | minimum inhibitory concentration [MIC] ([9]; broth microdilution) [µg/mL]
1 | CC[C@H](C)[C@@H]1OC(=O)[C@H](C)OC(=O)[C@@H](NC(=O)c2cccc(NC=O)c2O)[C@@H](C)OC(=O)[C@H](C(C)C)OC(=O)C(C)(C)C(=O)[C@H](CC(C)C)NC1=O [Cyclodepsipeptide 2] | 16 | 64 (≈ 87200 nM) | 0.62 | 0.63 | 0.58 | 1.2 | <0.1 | – | – | – | – | – | – | – | – | –
2 | CCC(C)[C@@H]1OC(=O)[C@H](C)OC(=O)[C@@H](NC(=O)c2cccc(N)c2O)[C@@H](C)OC(=O)[C@H](CC(C)C)OC(=O)C(C)(C)C(=O)[C@H](CC(C)C)NC1=O (stereo partly shown) [Cyclodepsipeptide 3, Kitastatin 1] | – | – | – | – | – | – | – | 64 (≈ 88900 nM) | 3.5 (≈ 4.86 nM) | 4 (≈ 5.56 nM) | < 1 | 2.4 (≈ 3.33 nM) | 64 (≈ 88900 nM) | 6.6 (≈ 9.17 nM) | 2.6 (≈ 3.61 nM) | –
3 | CCC(C)[C@@H]1OC(=O)[C@H](C)OC(=O)[C@@H](NC(=O)c2cccc(NC=O)c2O)[C@@H](C)OC(=O)[C@H](CC(C)C)OC(=O)C(C)(C)C(=O)[C@H](CC(C)C)NC1=O (stereo partly shown) [Cyclodepsipeptide 1, respirantin] | 1.6 | – | 0.6 | 0.6 | 0.6 | 0.47 | 0.18 | – | – | – | – | – | – | – | – | 2 (≈ 2670 nM)
